The conditions of series [1]: pig, 500 mg intraosseous, no tourniquet, microdialysis, mean (SD), n = 8; for AUC 0-last: 12 h.
Procedure: (§1) Eight female pigs, from the same supplier and raised under the same conditions, were included in the study (Danish Landrace Breed, age 5 months, weight 78–82 kg). The pigs were kept under general anesthesia with a continuous infusion of propofol (450–650 mg/h) and fentanyl (0.5–0.7 mg/h) throughout the entire study period. The arterial pH and body temperature were monitored and kept in the ranges of 7.37–7.52 and 36.4–40.0 ^∘ C, respectively. After the study, the pigs were euthanized using pentobarbital.
An intraosseous cannula (15 mm) was inserted into the medial tibial condyle approximately 10 mm distal to the epiphyseal line; see Fig. 1. Three tibial microdialysis probes were placed in drill holes, one in the adjacent cancellous bone parallel to and at a mean distance of 9 (range 7–10) mm from the intraosseous cannula tip (drill depth 35±1 mm), one in the cortical bone at the anterior–medial margin of the tibial diaphysis (drill depth 14±0.5 mm), and one within the intramedullary canal of the tibial diaphysis. All drill holes were made with a 2 mm drill, which was paused every few seconds to prevent overheating of the bone tissue. Subsequently, a probe was placed in the synovial fluid of the knee joint using a splittable introducer. Finally, a subcutaneous tissue probe was placed lateral to the knee joint. No tourniquet was applied. Correct positions of all the probes and the distance between the intraosseous cannula and the adjacent cancellous bone microdialysis catheter were verified by fluoroscopy.
Due to continuous perfusion of the microdialysis system, a complete equilibrium across the semipermeable membrane will never occur. The concentration in the dialysate will therefore only represent a fraction of the absolute tissue concentration, which is expressed as the relative recovery. Thus, relative recovery must be determined to assess the absolute tissue concentrations. In the present study, all microdialysis probes were individually calibrated in the beginning of the study using the retrodialysis by drug method (Scheller and Kolb, 1991).
In the present study we used CMA 107 precision pumps ( μ -Dialysis AB, Stockholm, Sweden) producing a flow rate of 1 µL/min and CMA 70 probes (membrane lengths 10 and 20 mm, molecular cutoff 20 kDa).
(§2) Afterwards, all probes were individually calibrated by the retrodialysis method by collecting a 60 min sample. […] The first three dialysates were collected at times 40, 80, and 120 min. Thereafter, dialysates were collected at 60 min intervals from times 120 to 720 min, giving a total of 13 samples from each compartment over 12 h. Blood samples were drawn from a central venous catheter at the midpoint of the microdialysis sample intervals. The dialysates were instantly stored at -80 ^∘ C until analysis. Blood samples were stored at 5 ^∘ C for a maximum of 4 h before being centrifuged at 3000 rpm for 10 min. The obtained plasma aliquots were then stored at -80 ^∘ C until analysis.
(§3) Intra-run (total) imprecisions for the assay were ±1.2 µg/mL (2 standard deviations – SD) at 6.6 and ±3.7 µg/mL (2 SD) at 29.1 µg/mL .
Standard pharmacokinetic parameters were determined separately for each compartment in each pig by non-compartmental analysis using Stata (v. 14.1, StataCorp LLC, College Station, TX, USA). The area under the concentration–time curve (AUC 0-last ) was calculated using the trapezoidal rule. The maxima of all the recorded concentrations were defined as peak drug concentration ( Cmax ) and enabled a calculation of the time to Cmax ( Tmax ).
The test system of series [2] is Commonly encountered bacteria in orthopaedic infections. Set-up: method as in Rybak, 2006; EUCAST, 2019. The following applies: range for commonly encountered bacteria in orthopaedic infections; ref Rybak, 2006; EUCAST, 2019; cited from earlier work.
The conditions of series [3]: proximal tourniquet applied before intraosseous administration, ref Young et al., 2014, Chin et al., 2018, Rubio-Martinez et al., 2006, cited from earlier work.
Series [4] is described as follows: Plasma vancomycin concentrations after tibial intraosseous administration. The note with it: pig, 500 mg intraosseous, no tourniquet, mean (SD), n = 8.
Procedure: as §1, §2, §3
Standard pharmacokinetic parameters were determined separately for each compartment in each pig by non-compartmental analysis using Stata (v. 14.1, StataCorp LLC, College Station, TX, USA). The area under the concentration–time curve (AUC 0-last ) was calculated using the trapezoidal rule. The maxima of all the recorded concentrations were defined as peak drug concentration ( Cmax ) and enabled a calculation of the time to Cmax ( Tmax ). Half-life ( T1/2 ) was determined for all compartments except for tibial cortical bone and calculated as ln(2)/ λeq , where λeq is the terminal elimination rate constant estimated by linear regression of the log concentration on time. For AUC 0-last and Cmax , a mixed model for repeated measurements was applied, taking the variance between pigs into account. The model assumptions were tested by visual diagnosis of residuals, fitted values, and estimates of random effects. A correction for degrees of freedom due to small sample size was handled using the Kenward–Roger approximation method. The t test was used to determine relevant pairwise comparisons. A p value <0.05 was considered to be significant. A Spearman test was used to test the correlation between the distance of the intraosseous cannula and the adjacent cancellous bone drill hole with the peak drug concentration. Statistical analyses were also performed using Stata. […] Values below the quantification limit were set to zero.
Where [5] appears, read: intramedullary canal in the tibia.
Setting [6] is: synovial fluid of the knee joint.

SMILES strings stand for the structures. Read-outs that look alike come from different tables or passages of the source. Marks after values point to notes of the source that are not given here.

For `CN[C@H](CC(C)C)C(=O)N[C@H]1C(=O)N[C@@H](CC(N)=O)C(=O)N[C@H]2C(=O)N[C@H]3C(=O)N[C@H](C(=O)N[C@H](C(=O)O)c4cc(O)cc(O)c4-c4cc3ccc4O)[C@H](O)c3ccc(c(Cl)c3)Oc3cc2cc(c3O[C@@H]2O[C@H](CO)[C@@H](O)[C@H](O)[C@H]2O[C@H]2C[C@](C)(N)[C@H](O)[C@H](C)O2)Oc2ccc(cc2Cl)[C@H]1O` [vancomycin], the “AUC 0-last” value in series [1] (setting [5]) is reported as 1980 (908) ^a min µg/mL; in series [1] (subcutaneous tissue), 1881 (691) ^a min µg/mL; in series [1] (setting [6]) it was 1565 (758) ^a min µg/mL; in series [1] (tibial cortical bone), 326 (331) min µg/mL; in series [4] (plasma (free concentration, enzyme immunoassay), 12 h) it was 3,673 (611) min µg/mL. Also, the T1/2 is 339 (332) min in series [1] (setting [5]); 361 (269) min in series [1] (subcutaneous tissue); 217 (140) min in series [1] (setting [6]); 279 (188) min in series [1] (tibial cancellous bone); 254 (128) min in series [4] (plasma). Besides, the Tmax in series [1] (setting [5]) is 65 (26) min; in series [1] (subcutaneous tissue), 70 (19) min; in series [1] (setting [6]) it was 45 (21) min; in series [1] (tibial cancellous bone), 111 (94) min; in series [1] (tibial cortical bone), 405 (278) min; in series [4] (plasma), 20 (19) min. For the same molecule, the “vancomycin concentration after 11.5 h (690 min), end concentration” value in series [1] (tibial cancellous bone) is 278 (469) µg/mL. The “planktonic MIC” value in series [2] was 0.5 to 4 µg/mL. In addition, in series [3] (range), the “systemic vancomycin plasma levels after tourniquet deflation” value was 1.8 to 6.0 µg/mL. Besides, the “increase of plasma levels after tourniquet deflation” value in series [3] is recorded as 4–10 fold. Moreover, the “systemic vancomycin plasma levels during tourniquet inflation” value in series [3] was 0.0 to 2.7 µg/mL. For the same molecule, in series [4] (plasma (free concentration, enzyme immunoassay)), the “Cmax (peak drug concentration)” value is on record as 19 (2) µg/mL.

The values are drawn from article PMC8129907 (Journal of Bone and Joint Infection, 2021).
